Results from ChEMBL document CHEMBL3758172, “Design and synthesis of fluorescent and biotin tagged probes for the study of molecular actions of FAF1 inhibitor” (Bioorg Med Chem Lett, 2016).
Active and inactive are the calls of the source. The calls are words filed in the database; no cut-off is given here.

How the values were obtained:
SH-SY5Y [1] = assay: Inhibition of ischemic cell death in human SH-SY5Y cells assessed as LDH release at 20 uM pretreated for 30 mins followed by addition of 500 uM H2O2 measured after 6 hrs; assay type: functional, cell-based
[2] = molecular target: T1, FAS-associated factor 1 (Homo sapiens) (UniProt Q9UNN5); assay: Binding affinity to FLAG-tagged FAF1 (unknown origin) expressed in H2O2-treated human SH-SY5Y cells at 100 uM after 12 hrs by immunoblot analysis; assay type: cell-based
T1 sequence (whole entry): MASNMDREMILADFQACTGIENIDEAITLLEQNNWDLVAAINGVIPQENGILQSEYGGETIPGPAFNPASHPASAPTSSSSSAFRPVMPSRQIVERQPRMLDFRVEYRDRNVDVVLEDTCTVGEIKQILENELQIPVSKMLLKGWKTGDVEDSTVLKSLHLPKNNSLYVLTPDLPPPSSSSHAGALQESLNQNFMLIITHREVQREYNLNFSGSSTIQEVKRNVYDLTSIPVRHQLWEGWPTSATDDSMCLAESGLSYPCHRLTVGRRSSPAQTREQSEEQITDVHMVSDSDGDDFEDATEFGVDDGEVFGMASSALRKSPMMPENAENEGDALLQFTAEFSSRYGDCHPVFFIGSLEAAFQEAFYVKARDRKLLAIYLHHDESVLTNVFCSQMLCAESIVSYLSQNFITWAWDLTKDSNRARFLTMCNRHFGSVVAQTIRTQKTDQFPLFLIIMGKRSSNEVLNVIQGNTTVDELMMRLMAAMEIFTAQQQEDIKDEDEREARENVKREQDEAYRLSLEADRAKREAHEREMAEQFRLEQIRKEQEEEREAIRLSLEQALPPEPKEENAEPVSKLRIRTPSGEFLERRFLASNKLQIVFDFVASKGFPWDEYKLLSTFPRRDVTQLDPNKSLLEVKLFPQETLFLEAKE

SH-SY5Y [3] = assay: Inhibition of ischemic cell death in human SH-SY5Y cells assessed as cell viability pretreated for 30 mins followed by addition of 500 uM H2O2 measured after 6 hrs by MTS assay; assay type: functional, cell-based
[4] = molecular target: T1, FAS-associated factor 1 (Homo sapiens); assay: Binding affinity to FLAG-tagged FAF1 (unknown origin) expressed in H2O2-treated human SH-SY5Y cells after 12 hrs by immunoblot analysis; assay type: cell-based

inhibition [2]	inhibition [4]	Compound	inhibition (SH-SY5Y [1])	inhibition (SH-SY5Y [3])
Active		O=C(CCCC[C@@H]1SC[C@@H]2NC(=O)N[C@@H]21)NCCCCOc1ccc(CCn2cc(NC(=O)CSc3ccc(Br)cc3)c(C(=O)O)n2)cc1	Active	Active
		O=C(CSc1ccc(Br)cc1)Nc1cn(CCc2ccccc2)nc1C(=O)O	Active	Active
	Active	CN(C)c1cccc2c(S(=O)(=O)NCCCCOc3ccc(CCn4cc(NC(=O)CSc5ccc(Br)cc5)c(C(=O)O)n4)cc3)cccc12	Active	Active
